The experiment concerns the target T1, human cathepsin S (CatS) (Homo sapiens, UniProt P25774).
T1 construct: made in house; host or cells: baculovirus system (insect cells)
The experiment in a line: Recombinant human cathepsin S (CatS) fluorogenic substrate inhibition assay. The class given is biochemical. The settings on record: recombinant human CatS, 10 μM Z-Valine-Valine-Arginine-AMC, pH 5.0; average of results obtained; read-out: CatS IC50. As for the experimental part: Recombinant human cathepsin S (CatS) was expressed in the baculovirus system and purified in one step with a thiopropyl-sepharose column. […] The assay is run in 150 mM sodium acetate pH 5.0 containing 1.5 mM DTT and 150 mM NaCl. […] Measurements are taken every min for 20 min. The rate is calculated from the slope of the increase in fluorescence and the percent inhibition is calculated from this.

This passage reports IC50 results from patent publication US20080269241A1, “BICYCLIC AMINOPROPYL TETRAHYDRO-PYRAZOLO-PYRIDINE MODULATORS OF CATHEPSIN S” (priority 2007, published 2008).

T1 sequence (P25774 115-331): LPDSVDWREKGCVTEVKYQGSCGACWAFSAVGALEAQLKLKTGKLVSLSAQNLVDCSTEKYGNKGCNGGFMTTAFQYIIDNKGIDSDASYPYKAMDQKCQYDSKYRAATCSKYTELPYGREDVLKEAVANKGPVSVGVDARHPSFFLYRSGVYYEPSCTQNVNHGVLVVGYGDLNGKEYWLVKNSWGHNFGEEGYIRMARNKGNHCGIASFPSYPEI

In general, IC50 refers to the concentration that inhibits the measured activity by half. `CS(=O)(=O)N1CCc2c(c(-c3ccc(C(F)(F)F)c(CNC(=O)c4ccc(CO)cc4)c3)nn2CC(O)CN2CCC(N3CCCC3=O)CC2)C1` (centres unmarked) [Example 107, 4-Hydroxymethyl-N-[5-(1-{2-hydroxy-3-[4-(2-oxo-pyrrolidin-1-yl)-piperidin-1-yl]-propyl}-5-methanesulfonyl-4,5,6,7-tetrahydro-1H-pyrazolo[4,3-c]pyridin-3-yl)-2-trifluoromethyl-benzyl]-benzamide]: the IC50 worked out at 0.07 µM.
With `CS(=O)(=O)N1CCc2c(c(-c3ccc(C(F)(F)F)c(CNC(=O)CC4CCCC4)c3)nn2CCCN2CCC(N3CCCC3=O)CC2)C1` [Example 108, 2-Cyclopentyl-N-[5-(5-methanesulfonyl-1-{3-[4-(2-oxo-pyrrolidin-1-yl)-piperidin-1-yl]-propyl}-4,5,6,7-tetrahydro-1H-pyrazolo[4,3-c]pyridin-3-yl)-2-trifluoromethyl-benzyl]-acetamide], the IC50 turned out to be 0.08 µM.
To `CC(=O)c1ccc(C(=O)NCc2cc(-c3nn(CC(O)CN4CCC(N5CCCC5=O)CC4)c4c3CN(S(C)(=O)=O)CC4)ccc2C(F)(F)F)s1` (centres unmarked) [Example 109, 5-Acetyl-thiophene-2-carboxylic acid 5-(1-{2-hydroxy-3-[4-(2-oxo-pyrrolidin-1-yl)-piperidin-1-yl]-propyl}-5-methanesulfonyl-4,5,6,7-tetrahydro-1H-pyrazolo[4,3-c]pyridin-3-yl)-2-trifluoromethyl-benzylamide] belongs 0.08 µM; to `CCCC(=O)NCc1cc(-c2nn(CCCN3CCC(N4CCCC4=O)CC3)c3c2CN(S(C)(=O)=O)CC3)ccc1C(F)(F)F` [Example 110, N-[5-(5-Methanesulfonyl-1-{3-[4-(2-oxo-pyrrolidin-1-yl)-piperidin-1-yl]-propyl}-4,5,6,7-tetrahydro-1H-pyrazolo[4,3-c]pyridin-3-yl)-2-trifluoromethyl-benzyl]-butyramide], 0.09 µM; to `CS(=O)(=O)N1CCc2c(c(-c3ccc(C(F)(F)F)c(CNC(=O)CC4CCCCC4)c3)nn2CCCN2CCC(N3CCCC3=O)CC2)C1` [Example 111, 2-Cyclohexyl-N-[5-(5-methanesulfonyl-1-{3-[4-(2-oxo-pyrrolidin-1-yl)-piperidin-1-yl]-propyl}-4,5,6,7-tetrahydro-1H-pyrazolo[4,3-c]pyridin-3-yl)-2-trifluoromethyl-benzyl]-acetamide], 0.1 µM.
For `CS(=O)(=O)N1CCc2c(c(-c3ccc(C(F)(F)F)c(CNC(=O)N4CCCCC4)c3)nn2CC(O)CN2CCC(N3CCCC3=O)CC2)C1` (centres unmarked) [Example 112, Piperidine-1-carboxylic acid 5-(1-{2-hydroxy-3-[4-(2-oxo-pyrrolidin-1-yl)-piperidin-1-yl]-propyl}-5-methanesulfonyl-4,5,6,7-tetrahydro-1H-pyrazolo[4,3-c]pyridin-3-yl)-2-trifluoromethyl-benzylamide], the IC50 came out at 0.1 µM.
To `CS(=O)(=O)N1CCc2c(c(-c3ccc(C(F)(F)F)c(CNC(=O)c4cscn4)c3)nn2CC(O)CN2CCC(N3CCCC3=O)CC2)C1` (centres unmarked) [Example 114, Thiazole-4-carboxylic acid 5-(1-{2-hydroxy-3-[4-(2-oxo-pyrrolidin-1-yl)-piperidin-1-yl]-propyl}-5-methanesulfonyl-4,5,6,7-tetrahydro-1H-pyrazolo[4,3-c]pyridin-3-yl)-2-trifluoromethyl-benzylamide] belongs 0.1 µM; to `CS(=O)(=O)c1ccc(C(=O)NCc2cc(-c3nn(CC(O)CN4CCC(N5CCCC5=O)CC4)c4c3CN(S(C)(=O)=O)CC4)ccc2C(F)(F)F)s1` (centres unmarked) [Example 119, 5-Methanesulfonyl-thiophene-2-carboxylic acid 5-(1-{2-hydroxy-3-[4-(2-oxo-pyrrolidin-1-yl)-piperidin-1-yl]-propyl}-5-methanesulfonyl-4,5,6,7-tetrahydro-1H-pyrazolo[4,3-c]pyridin-3-yl)-2-trifluoromethyl-benzylamide], 0.14 µM.
For the compound `CS(=O)(=O)N1CCc2c(c(-c3ccc(C(F)(F)F)c(CNC(=O)c4ccc5[nH]c(=O)[nH]c5c4)c3)nn2CC(O)CN2CCC(N3CCCC3=O)CC2)C1` (centres unmarked) [Example 120, 2-Oxo-2,3-dihydro-1H-benzoimidazole-5-carboxylic acid 5-(1-{2-hydroxy-3-[4-(2-oxo-pyrrolidin-1-yl)-piperidin-1-yl]-propyl}-5-methanesulfonyl-4,5,6,7-tetrahydro-1H-pyrazolo[4,3-c]pyridin-3-yl)-2-trifluoromethyl-benzylamide], the IC50 was 0.14 µM.
Regarding `CS(=O)(=O)N1CCc2c(c(-c3ccc(C(F)(F)F)c(CNC(=O)c4ccc(-c5ccccn5)s4)c3)nn2CC(O)CN2CCC(N3CCCC3=O)CC2)C1` (centres unmarked) [Example 121, 5-Pyridin-2-yl-thiophene-2-carboxylic acid 5-(1-{2-hydroxy-3-[4-(2-oxo-pyrrolidin-1-yl)-piperidin-1-yl]-propyl}-5-methanesulfonyl-4,5,6,7-tetrahydro-1H-pyrazolo[4,3-c]pyridin-3-yl)-2-trifluoromethyl-benzylamide], the IC50 came out at 0.15 µM.
Take `CN1CCOc2cc(C(=O)NCc3cc(-c4nn(CC(O)CN5CCC(N6CCCC6=O)CC5)c5c4CN(S(C)(=O)=O)CC5)ccc3C(F)(F)F)ccc21` (centres unmarked) [Example 122, 4-Methyl-3,4-dihydro-2H-benzo[1,4]oxazine-7-carboxylic acid 5-(1-{2-hydroxy-3-[4-(2-oxo-pyrrolidin-1-yl)-piperidin-1-yl]-propyl}-5-methanesulfonyl-4,5,6,7-tetrahydro-1H-pyrazolo[4,3-c]pyridin-3-yl)-2-trifluoromethyl-benzylamide]: the IC50 came out at 0.17 µM.
Regarding `Cc1nn(C)c2sc(C(=O)NCc3cc(-c4nn(CC(O)CN5CCC(N6CCCC6=O)CC5)c5c4CN(S(C)(=O)=O)CC5)ccc3C(F)(F)F)cc12` (centres unmarked) [Example 123, 1,3-Dimethyl-1H-thieno[2,3-c]pyrazole-5-carboxylic acid 5-(1-{2-hydroxy-3-[4-(2-oxo-pyrrolidin-1-yl)-piperidin-1-yl]-propyl}-5-methanesulfonyl-4,5,6,7-tetrahydro-1H-pyrazolo[4,3-c]pyridin-3-yl)-2-trifluoromethyl-benzylamide], the IC50 came out at 0.18 µM.
On to `CS(=O)(=O)N1CCc2c(c(-c3ccc(C(F)(F)F)c(CNC(=O)c4ccc[nH]4)c3)nn2CC(O)CN2CCC(N3CCCC3=O)CC2)C1` (centres unmarked) [Example 124, 1H-Pyrrole-2-carboxylic acid 5-(1-{2-hydroxy-3-[4-(2-oxo-pyrrolidin-1-yl)-piperidin-1-yl]-propyl}-5-methanesulfonyl-4,5,6,7-tetrahydro-1H-pyrazolo[4,3-c]pyridin-3-yl)-2-trifluoromethyl-benzylamide], for which the IC50 came to 0.18 µM.
With `CSCC(=O)NCc1cc(-c2nn(CCCN3CCC(N4CCCC4=O)CC3)c3c2CN(S(C)(=O)=O)CC3)ccc1C(F)(F)F` [Example 125, N-[5-(5-Methanesulfonyl-1-{3-[4-(2-oxo-pyrrolidin-1-yl)-piperidin-1-yl]-propyl}-4,5,6,7-tetrahydro-1H-pyrazolo[4,3-c]pyridin-3-yl)-2-trifluoromethyl-benzyl]-2-methylsulfanyl-acetamide], the IC50 is 0.2 µM.
Turning to `CS(=O)(=O)N1CCc2c(c(-c3ccc(C(F)(F)F)c(CNC(=O)c4cccnc4)c3)nn2CC(O)CN2CCC(N3CCCC3=O)CC2)C1` (centres unmarked) [Example 126, N-[5-(1-{2-Hydroxy-3-[4-(2-oxo-pyrrolidin-1-yl)-piperidin-1-yl]-propyl}-5-methanesulfonyl-4,5,6,7-tetrahydro-1H-pyrazolo[4,3-c]pyridin-3-yl)-2-trifluoromethyl-benzyl]-nicotinamide], the IC50 came out at 0.21 µM.
To `CC(C)(C)OC(=O)N1CCC(C(=O)NCc2cc(-c3nn(CC(O)CN4CCC(N5CCCC5=O)CC4)c4c3CN(S(C)(=O)=O)CC4)ccc2C(F)(F)F)CC1` (centres unmarked) [Example 127, 4-[5-(1-{2-Hydroxy-3-[4-(2-oxo-pyrrolidin-1-yl)-piperidin-1-yl]-propyl}-5-methanesulfonyl-4,5,6,7-tetrahydro-1H-pyrazolo[4,3-c]pyridin-3-yl)-2-trifluoromethyl-benzylcarbamoyl]-piperidine-1-carboxylic acid tert-butyl ester] belongs 0.22 µM.
To `CS(=O)(=O)N1CCc2c(c(-c3ccc(C(F)(F)F)c(CNC(=O)c4ccncc4)c3)nn2CC(O)CN2CCC(N3CCCC3=O)CC2)C1` (centres unmarked) [Example 128, N-[5-(1-{2-Hydroxy-3-[4-(2-oxo-pyrrolidin-1-yl)-piperidin-1-yl]-propyl}-5-methanesulfonyl-4,5,6,7-tetrahydro-1H-pyrazolo[4,3-c]pyridin-3-yl)-2-trifluoromethyl-benzyl]-isonicotinamide] belongs 0.24 µM.
To `CC(=O)Nc1cc(C(=O)NCc2cc(-c3nn(CC(O)CN4CCC(N5CCCC5=O)CC4)c4c3CN(S(C)(=O)=O)CC4)ccc2C(F)(F)F)ccn1` (centres unmarked) [Example 129, 2-Acetylamino-N-[5-(1-{2-hydroxy-3-[4-(2-oxo-pyrrolidin-1-yl)-piperidin-1-yl]-propyl}-5-methanesulfonyl-4,5,6,7-tetrahydro-1H-pyrazolo[4,3-c]pyridin-3-yl)-2-trifluoromethyl-benzyl]-isonicotinamide] belongs 0.25 µM.
Turning to `CS(=O)(=O)N1CCc2c(c(-c3ccc(C(F)(F)F)c(CNC(=O)C4CCCCCC4)c3)nn2CC(O)CN2CCC(N3CCCC3=O)CC2)C1` (centres unmarked) [Example 130, Cycloheptanecarboxylic acid 5-(1-{2-hydroxy-3-[4-(2-oxo-pyrrolidin-1-yl)-piperidin-1-yl]-propyl}-5-methanesulfonyl-4,5,6,7-tetrahydro-1H-pyrazolo[4,3-c]pyridin-3-yl)-2-trifluoromethyl-benzylamide], the IC50 came to 0.27 µM.
Take `CC(O)CC(=O)NCc1cc(-c2nn(CCCN3CCC(N4CCCC4=O)CC3)c3c2CN(S(C)(=O)=O)CC3)ccc1C(F)(F)F` (centres unmarked) [Example 131, 3-Hydroxy-N-[5-(5-methanesulfonyl-1-{3-[4-(2-oxo-pyrrolidin-1-yl)-piperidin-1-yl]-propyl}-4,5,6,7-tetrahydro-1H-pyrazolo[4,3-c]pyridin-3-yl)-2-trifluoromethyl-benzyl]-butyramide]: the IC50 turned out to be 0.27 µM.
